The values below come from US20250353891A1 (MEDIMMUNE LIMITED, priority 2022, published 2025).

The target in experiment [1] is human glucagon receptor (hGCGR) (Homo sapiens, UniProt P47871). Briefly: cAMP production (HTRF) in CHO cells expressing hGCGR. The experiment is classed as cell-based. Also on record: expressed in transfected cells. Particulars: Table 7, peptides modified at position 20; cAMP in CHO hGCGR cells; geometric mean; read-out: hGluc-R EC50. The procedure, abridged: (§1)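 Potency values represent EC50 from 4-parameter logistic curves of HTRF % Delta F signal. Receptor-expressing CHO cells (hGCGR 2×10^5 cells/mL, hGLP-1R 1×10^5 cells/mL) were exposed for 30 min at room temperature before two-step cAMP detection.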
Chain of human glucagon receptor (hGCGR) (P47871 26-477): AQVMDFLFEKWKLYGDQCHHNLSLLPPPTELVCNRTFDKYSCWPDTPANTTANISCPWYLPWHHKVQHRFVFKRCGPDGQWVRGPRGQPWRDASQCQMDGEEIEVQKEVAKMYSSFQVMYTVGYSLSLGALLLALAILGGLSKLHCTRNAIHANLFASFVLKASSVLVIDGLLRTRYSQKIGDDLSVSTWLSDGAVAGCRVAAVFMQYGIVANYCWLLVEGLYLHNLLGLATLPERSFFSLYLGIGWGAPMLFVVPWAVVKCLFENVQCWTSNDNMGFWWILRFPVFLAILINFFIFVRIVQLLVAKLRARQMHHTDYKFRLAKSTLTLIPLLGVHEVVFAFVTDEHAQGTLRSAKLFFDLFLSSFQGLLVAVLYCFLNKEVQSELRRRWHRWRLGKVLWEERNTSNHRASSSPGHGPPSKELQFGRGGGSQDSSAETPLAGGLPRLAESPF

The target of experiment [2] is human GLP-1 receptor (hGLP-1R) (Homo sapiens, UniProt P43220). The experiment in a line: cAMP production (HTRF) in CHO cells expressing hGLP-1R. The experiment is classed as cell-based. Also on record: expressed in transfected cells. The following applies: for EC50: Table 7, peptides modified at position 20, cAMP in CHO hGLP-1R cells, geometric mean, read-out: hGLP-1R EC50; for % Relative Potency Ratio: Table 7, % GLP-1R activity relative to GLP-1 / % GlucR activity relative to glucagon. In outline: as §1
Chain of human GLP-1 receptor (hGLP-1R) (P43220 24-463): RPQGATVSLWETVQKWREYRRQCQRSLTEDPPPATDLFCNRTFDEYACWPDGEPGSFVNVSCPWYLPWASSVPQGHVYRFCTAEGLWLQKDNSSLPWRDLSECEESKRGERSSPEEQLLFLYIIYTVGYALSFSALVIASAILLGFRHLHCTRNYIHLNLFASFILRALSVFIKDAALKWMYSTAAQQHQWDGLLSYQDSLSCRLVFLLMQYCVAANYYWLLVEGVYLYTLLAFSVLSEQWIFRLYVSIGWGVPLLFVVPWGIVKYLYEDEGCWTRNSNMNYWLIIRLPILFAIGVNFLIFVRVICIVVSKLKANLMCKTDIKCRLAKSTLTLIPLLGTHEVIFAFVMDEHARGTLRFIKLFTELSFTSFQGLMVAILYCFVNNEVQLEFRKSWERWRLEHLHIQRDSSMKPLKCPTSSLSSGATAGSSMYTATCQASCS

Starred links: 1 amine or outer side, 2 acyl side, 3 side chain; linkers in the order of their positions; H or OH if unused. Non-standard residues stand in square brackets, D forms with d. Residues, ends and D or L forms follow the SMILES beside them. Groups on a side chain read outwards from the residue. *: point of attachment. C20 diacid = O=C(O)CCCCCCCCCCCCCCCCCCC(=O)*; C18 diacid = O=C(O)CCCCCCCCCCCCCCCCC(=O)*; γGlu = O=C(O)[C@H](CCC(=O)[*:2])N[*:1]; αMeF = C[C@](N)(Cc1ccccc1)C(=O)O; PEG4 = NCCOCCOCCOCCOCCC(=O)O; PEG2 = NCCOCCOCCC(=O)O; AEEA = NCCOCCOCC(=O)O; Aib = CC(C)(N)C(=O)O

With `CC[C@H](C)[C@H](NC(=O)[C@H](CO)NC(=O)[C@H](CCC(=O)O)NC(=O)[C@@H](NC(=O)[C@H](Cc1ccccc1)NC(=O)[C@H](CC(=O)O)NC(=O)[C@H](CCCCNC(=O)CC[C@H](NC(=O)CCCCCCCCCCCCCCCCC(=O)O)C(=O)O)NC(=O)[C@H](C)NC(=O)C(C)(C)NC(=O)[C@H](CCCNC(=N)N)NC(=O)[C@H](CO)NC(=O)[C@H](CC(=O)O)NC(=O)[C@H](CC(C)C)NC(=O)[C@](C)(Cc1ccccc1)NC(=O)[C@H](CCCCN)NC(=O)[C@H](CO)NC(=O)[C@@H](NC(=O)[C@H](CC(=O)O)NC(=O)[C@H](CO)NC(=O)[C@@H](NC(=O)[C@](C)(Cc1ccccc1)NC(=O)[C@H](CO)NC(=O)CNC(=O)[C@H](Cc1c[nH]cn1)NC(=O)C(C)(C)NC(=O)[C@@H](N)Cc1c[nH]cn1)[C@@H](C)O)C(C)C)C(C)C)C(=O)N[C@@H](C)C(=O)N[C@@H](CC(N)=O)C(=O)N[C@H](C(N)=O)[C@@H](C)O` [Peptide 254] (H-H[Aib]HGS[αMeF]TSDVSK[αMeF]LDSR[Aib]AK([γGlu-C18 diacid])DFVESIANT-NH2), the EC50 in experiment [1] is 0.125 nM; in experiment [2] it was 0.102 nM. Also, the “% Relative Potency Ratio” value in experiment [2] turned out to be 2.4.

As to `CC[C@H](C)[C@H](NC(=O)C(C)(C)NC(=O)[C@H](CCC(N)=O)NC(=O)[C@@H](NC(=O)[C@](C)(Cc1ccccc1)NC(=O)[C@H](CC(=O)O)NC(=O)[C@H](CCCCNC(=O)COCCOCCNC(=O)COCCOCCNC(=O)CC[C@H](NC(=O)CCCCCCCCCCCCCCCCC(=O)O)C(=O)O)NC(=O)[C@H](C)NC(=O)[C@H](C)NC(=O)[C@H](CCC(N)=O)NC(=O)[C@H](CO)NC(=O)[C@H](CC(=O)O)NC(=O)[C@H](CC(C)C)NC(=O)[C@](C)(Cc1ccccc1)NC(=O)[C@H](CCCCN)NC(=O)[C@H](CO)NC(=O)[C@@H](NC(=O)[C@H](CC(=O)O)NC(=O)[C@H](CO)NC(=O)[C@@H](NC(=O)[C@](C)(Cc1ccccc1)NC(=O)[C@H](CO)NC(=O)CNC(=O)[C@H](Cc1c[nH]cn1)NC(=O)C(C)(C)NC(=O)[C@@H](N)Cc1c[nH]cn1)[C@@H](C)O)C(C)C)C(C)C)C(=O)N[C@@H](C)C(=O)N[C@@H](CC(N)=O)C(=O)N[C@H](C(N)=O)[C@@H](C)O` [Peptide 255] (H-H[Aib]HGS[αMeF]TSDVSK[αMeF]LDSQAAK([AEEA-AEEA-γGlu-C18 diacid])D[αMeF]VQ[Aib]IANT-NH2; N-terminus assumed), in experiment [1], the EC50 was 0.146 nM. Moreover, in experiment [2], the EC50 worked out at 0.148 nM and the “% Relative Potency Ratio” value came to 2.0.

Turning to `CC[C@H](C)[C@H](NC(=O)C(C)(C)NC(=O)[C@H](CCC(N)=O)NC(=O)[C@@H](NC(=O)[C@](C)(Cc1ccccc1)NC(=O)[C@H](CC(=O)O)NC(=O)[C@H](CCCCNC(=O)COCCOCCNC(=O)COCCOCCNC(=O)CC[C@H](NC(=O)CC[C@H](NC(=O)CCCCCCCCCCCCCCCCCCC(=O)O)C(=O)O)C(=O)O)NC(=O)[C@H](C)NC(=O)[C@H](C)NC(=O)[C@H](CCC(N)=O)NC(=O)[C@H](CO)NC(=O)[C@H](CC(=O)O)NC(=O)[C@H](CC(C)C)NC(=O)[C@](C)(Cc1ccccc1)NC(=O)[C@H](CCCCN)NC(=O)[C@H](CO)NC(=O)[C@@H](NC(=O)[C@H](CC(=O)O)NC(=O)[C@H](CO)NC(=O)[C@@H](NC(=O)[C@](C)(Cc1ccccc1)NC(=O)[C@H](CO)NC(=O)CNC(=O)[C@H](Cc1c[nH]cn1)NC(=O)C(C)(C)NC(=O)[C@@H](N)Cc1c[nH]cn1)[C@@H](C)O)C(C)C)C(C)C)C(=O)N[C@@H](C)C(=O)N[C@@H](CC(N)=O)C(=O)N[C@H](C(N)=O)[C@@H](C)O` [Peptide 256] (H-H[Aib]HGS[αMeF]TSDVSK[αMeF]LDSQAAK([AEEA-AEEA-γGlu-γGlu-C20 diacid])D[αMeF]VQ[Aib]IANT-NH2), the EC50 in experiment [1] worked out at 1.31 nM; in experiment [2] it was 0.346 nM. In experiment [2], the “% Relative Potency Ratio” value is 7.5.

On to `CC[C@H](C)[C@H](NC(=O)C(C)(C)NC(=O)[C@H](CCC(N)=O)NC(=O)[C@@H](NC(=O)[C@](C)(Cc1ccccc1)NC(=O)[C@H](CC(=O)O)NC(=O)[C@H](CCCCNC(=O)CCOCCOCCNC(=O)CCOCCOCCNC(=O)CC[C@H](NC(=O)CC[C@H](NC(=O)CCCCCCCCCCCCCCCCC(=O)O)C(=O)O)C(=O)O)NC(=O)[C@H](C)NC(=O)[C@H](C)NC(=O)[C@H](CCCNC(=N)N)NC(=O)[C@H](CO)NC(=O)[C@H](CC(=O)O)NC(=O)[C@H](CC(C)C)NC(=O)[C@](C)(Cc1ccccc1)NC(=O)[C@H](CCCCN)NC(=O)[C@H](CO)NC(=O)[C@@H](NC(=O)[C@H](CC(=O)O)NC(=O)[C@H](CO)NC(=O)[C@@H](NC(=O)[C@](C)(Cc1ccccc1)NC(=O)[C@H](CO)NC(=O)CNC(=O)[C@H](Cc1c[nH]cn1)NC(=O)C(C)(C)NC(=O)[C@@H](N)Cc1c[nH]cn1)[C@@H](C)O)C(C)C)C(C)C)C(=O)N[C@@H](C)C(=O)N[C@@H](CC(N)=O)C(=O)N[C@H](C(N)=O)[C@@H](C)O` [Peptide 258] (H-H[Aib]HGS[αMeF]TSDVSK[αMeF]LDSRAAK([PEG2-PEG2-γGlu-γGlu-C18 diacid])D[αMeF]VQ[Aib]IANT-NH2; N-terminus assumed), for which the EC50 in experiment [1] amounted to 0.0931 nM. In experiment [2], the EC50 turned out to be 0.034 nM and the “% Relative Potency Ratio” value was 5.4.

For the compound `CC[C@H](C)[C@H](NC(=O)C(C)(C)NC(=O)[C@H](CCC(N)=O)NC(=O)[C@@H](NC(=O)[C@](C)(Cc1ccccc1)NC(=O)[C@H](CC(=O)O)NC(=O)[C@H](CCCCNC(=O)COCCOCCNC(=O)CC[C@H](NC(=O)COCCOCCNC(=O)CCCCCCCCCCCCCCCCC(=O)O)C(=O)O)NC(=O)[C@H](C)NC(=O)[C@H](C)NC(=O)[C@H](CCCNC(=N)N)NC(=O)[C@H](CO)NC(=O)[C@H](CC(=O)O)NC(=O)[C@H](CC(C)C)NC(=O)[C@](C)(Cc1ccccc1)NC(=O)[C@H](CCCCN)NC(=O)[C@H](CO)NC(=O)[C@@H](NC(=O)[C@H](CC(=O)O)NC(=O)[C@H](CO)NC(=O)[C@@H](NC(=O)[C@](C)(Cc1ccccc1)NC(=O)[C@H](CO)NC(=O)CNC(=O)[C@H](Cc1c[nH]cn1)NC(=O)C(C)(C)NC(=O)[C@@H](N)Cc1c[nH]cn1)[C@@H](C)O)C(C)C)C(C)C)C(=O)N[C@@H](C)C(=O)N[C@@H](CC(N)=O)C(=O)N[C@H](C(N)=O)[C@@H](C)O` [Peptide 259] (H-H[Aib]HGS[αMeF]TSDVSK[αMeF]LDSRAAK([AEEA-γGlu-AEEA-C18 diacid])D[αMeF]VQ[Aib]IANT-NH2), in experiment [1], the EC50 was 0.0348 nM. In experiment [2], the EC50 was 0.0191 nM and the “% Relative Potency Ratio” value is reported as 3.6.

`CC[C@H](C)[C@H](NC(=O)C(C)(C)NC(=O)[C@H](CCC(N)=O)NC(=O)[C@@H](NC(=O)[C@](C)(Cc1ccccc1)NC(=O)[C@H](CC(=O)O)NC(=O)[C@H](CCCCNC(=O)COCCOCCNC(=O)CC[C@H](NC(=O)COCCOCCNC(=O)CC[C@H](NC(=O)CCCCCCCCCCCCCCCCC(=O)O)C(=O)O)C(=O)O)NC(=O)[C@H](C)NC(=O)[C@H](C)NC(=O)[C@H](CCCNC(=N)N)NC(=O)[C@H](CO)NC(=O)[C@H](CC(=O)O)NC(=O)[C@H](CC(C)C)NC(=O)[C@](C)(Cc1ccccc1)NC(=O)[C@H](CCCCN)NC(=O)[C@H](CO)NC(=O)[C@@H](NC(=O)[C@H](CC(=O)O)NC(=O)[C@H](CO)NC(=O)[C@@H](NC(=O)[C@](C)(Cc1ccccc1)NC(=O)[C@H](CO)NC(=O)CNC(=O)[C@H](Cc1c[nH]cn1)NC(=O)C(C)(C)NC(=O)[C@@H](N)Cc1c[nH]cn1)[C@@H](C)O)C(C)C)C(C)C)C(=O)N[C@@H](C)C(=O)N[C@@H](CC(N)=O)C(=O)N[C@H](C(N)=O)[C@@H](C)O` [Peptide 260] (H-H[Aib]HGS[αMeF]TSDVSK[αMeF]LDSRAAK([AEEA-γGlu-AEEA-γGlu-C18 diacid])D[αMeF]VQ[Aib]IANT-NH2): the EC50 in experiment [1] is 0.0769 nM; in experiment [2], 0.0331 nM. Besides, in experiment [2], the “% Relative Potency Ratio” value was determined as 4.6.

Turning to `CC[C@H](C)[C@H](NC(=O)C(C)(C)NC(=O)[C@H](CCC(N)=O)NC(=O)[C@@H](NC(=O)[C@](C)(Cc1ccccc1)NC(=O)[C@H](CC(=O)O)NC(=O)[C@H](CCCCNC(=O)CCOCCOCCOCCOCCNC(=O)CC[C@H](NC(=O)CCCCCCCCCCCCCCCCC(=O)O)C(=O)O)NC(=O)[C@H](C)NC(=O)[C@H](C)NC(=O)[C@H](CCCNC(=N)N)NC(=O)[C@H](CO)NC(=O)[C@H](CC(=O)O)NC(=O)[C@H](CC(C)C)NC(=O)[C@](C)(Cc1ccccc1)NC(=O)[C@H](CCCCN)NC(=O)[C@H](CO)NC(=O)[C@@H](NC(=O)[C@H](CC(=O)O)NC(=O)[C@H](CO)NC(=O)[C@@H](NC(=O)[C@](C)(Cc1ccccc1)NC(=O)[C@H](CO)NC(=O)CNC(=O)[C@H](Cc1c[nH]cn1)NC(=O)C(C)(C)NC(=O)[C@@H](N)Cc1c[nH]cn1)[C@@H](C)O)C(C)C)C(C)C)C(=O)N[C@@H](C)C(=O)N[C@@H](CC(N)=O)C(=O)N[C@H](C(N)=O)[C@@H](C)O` [Peptide 261] (H-H[Aib]HGS[αMeF]TSDVSK[αMeF]LDSRAAK([PEG4-γGlu-C18 diacid])D[αMeF]VQ[Aib]IANT-NH2; N-terminus assumed), in experiment [1], the EC50 was 0.0294 nM. In experiment [2], the EC50 was 0.0162 nM and the “% Relative Potency Ratio” value is listed as 3.6.
